Starred links: 1 amine or outer side, 2 acyl side, 3 side chain; linkers in the order of their positions; H or OH if unused. Non-standard residues stand in square brackets, D forms with d. Residues, ends and D or L forms follow the SMILES beside them. Groups on a side chain read outwards from the residue. *: point of attachment. C18 diacid = O=C(O)CCCCCCCCCCCCCCCCC(=O)*; αMePhe(2-F) = C[C@](N)(Cc1ccccc1F)C(=O)O; γGlu = O=C(O)[C@H](CCC(=O)[*:2])N[*:1]; αMeY = C[C@](N)(Cc1ccc(O)cc1)C(=O)O; 4Pal = N[C@@H](Cc1ccncc1)C(=O)O; αMeL = CC(C)C[C@](C)(N)C(=O)O; Orn = NCCC[C@H](N)C(=O)O; AEEA = NCCOCCOCC(=O)O; Aib = CC(C)(N)C(=O)O
Tests used:
Type in all cases: cell-based
hGcgR = hGcgR (Homo sapiens, UniProt P47871); assay: Functional cAMP activation in the presence of 0.1% casein (no HSA); conditions: in the presence of 0.1% casein (no HSA); geometric mean; read-out: Relative cAMP EC50, hGcgR;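 also: intracellular cAMP rise after 30 min at 37 °C, read by HTRF against a cAMP standard curve, scaled from buffer only (0%) to maximal control ligand response (100%)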
hGcgR, sequence (P47871 26-477): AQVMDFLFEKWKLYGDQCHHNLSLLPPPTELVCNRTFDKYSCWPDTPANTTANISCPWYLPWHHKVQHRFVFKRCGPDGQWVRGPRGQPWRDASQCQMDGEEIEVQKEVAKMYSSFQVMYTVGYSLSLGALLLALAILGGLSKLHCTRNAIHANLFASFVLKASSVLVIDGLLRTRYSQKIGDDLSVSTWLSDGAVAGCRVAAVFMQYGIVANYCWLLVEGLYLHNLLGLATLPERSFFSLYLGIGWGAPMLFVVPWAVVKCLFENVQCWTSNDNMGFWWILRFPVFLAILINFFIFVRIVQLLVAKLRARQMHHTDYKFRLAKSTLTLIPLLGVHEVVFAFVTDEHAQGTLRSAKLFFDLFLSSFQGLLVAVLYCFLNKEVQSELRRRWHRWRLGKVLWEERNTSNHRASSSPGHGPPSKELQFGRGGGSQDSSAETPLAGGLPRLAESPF

hGLP-1R [1] = molecular target: T1, hGLP-1R (Homo sapiens, UniProt P43220); assay: as above; conditions: in the presence of 0.1% casein (no HSA); geometric mean; read-out: Relative cAMP EC50, hGLP-1R;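 also: intracellular cAMP rise after 30 min at 37 °C read by HTRF, normalized between buffer only (0%) and maximal control ligand (100%), four-parameter variable-slope fit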
T1 sequence (P43220 24-463): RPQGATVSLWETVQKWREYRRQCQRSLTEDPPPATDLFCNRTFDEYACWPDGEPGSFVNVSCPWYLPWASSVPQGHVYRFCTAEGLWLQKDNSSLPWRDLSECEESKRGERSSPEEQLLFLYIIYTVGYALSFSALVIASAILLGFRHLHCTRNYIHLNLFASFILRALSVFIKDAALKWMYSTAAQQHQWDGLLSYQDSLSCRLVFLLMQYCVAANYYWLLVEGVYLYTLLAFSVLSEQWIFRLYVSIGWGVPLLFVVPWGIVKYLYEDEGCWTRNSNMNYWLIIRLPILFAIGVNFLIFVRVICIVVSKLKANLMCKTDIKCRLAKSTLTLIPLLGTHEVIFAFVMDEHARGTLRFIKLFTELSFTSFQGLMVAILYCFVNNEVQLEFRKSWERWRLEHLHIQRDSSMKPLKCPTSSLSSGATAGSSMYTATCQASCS

hGIPR [2] = molecular target: T2, hGIPR (Homo sapiens, UniProt P48546); assay: as above; conditions: in the presence of 0.1% casein (no HSA); geometric mean; read-out: Relative cAMP EC50, hGIPR;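 also: intracellular cAMP rise after 30 min at 37 °C read by HTRF against a standard curve, scaled between buffer alone (0%) and top control ligand concentration (100%), four-parameter fit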
T2 sequence (P48546 22-466): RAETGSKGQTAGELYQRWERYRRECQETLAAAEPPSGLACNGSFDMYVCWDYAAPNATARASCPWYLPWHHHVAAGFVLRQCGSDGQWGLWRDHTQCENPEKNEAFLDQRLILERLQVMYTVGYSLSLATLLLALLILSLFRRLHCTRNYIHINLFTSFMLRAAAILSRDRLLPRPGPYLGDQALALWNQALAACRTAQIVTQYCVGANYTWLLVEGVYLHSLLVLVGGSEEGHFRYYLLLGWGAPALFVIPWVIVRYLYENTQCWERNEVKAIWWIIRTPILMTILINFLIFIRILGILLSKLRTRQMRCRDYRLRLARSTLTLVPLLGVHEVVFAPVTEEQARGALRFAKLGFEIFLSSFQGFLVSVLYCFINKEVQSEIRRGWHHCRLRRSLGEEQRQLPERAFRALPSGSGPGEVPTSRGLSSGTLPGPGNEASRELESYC

hGLP-1R [3] = molecular target: T1, hGLP-1R; assay: Functional cAMP activity in the presence of 1% HSA; conditions: read-out: cAMP Rel EC50, hGLP-1R
hGIPR [4] = molecular target: T2, hGIPR; assay: Functional cAMP activity in the presence of 1% HSA; conditions: read-out: cAMP Rel EC50, hGIPR
human GcgR = human GcgR (Homo sapiens, UniProt P47871); assay: Functional cAMP activity in the presence of 1% HSA; conditions: read-out: cAMP Rel EC50, hGcgR
human GcgR, sequence (P47871 26-477): as the sequence (P47871 26-477) above

| SMILES | EC50 (hGcgR) [nM] | EC50 (hGLP-1R [1]) [nM] | EC50 (hGIPR [2]) [nM] | EC50 (hGLP-1R [3]) [nM] | EC50 (hGIPR [4]) [nM] | EC50 (human GcgR) [nM] |
| --- | --- | --- | --- | --- | --- | --- |
| CC[C@H](C)[C@H](NC(=O)[C@H](Cc1ccccc1)NC(=O)[C@H](CCCN)NC(=O)C(C)(C)NC(=O)[C@H](CCC(N)=O)NC(=O)[C@H](C)NC(=O)[C@H](CCCCNC(=O)COCCOCCNC(=O)CC[C@H](NC(=O)CCCCCCCCCCCCCCCCC(=O)O)C(=O)O)NC(=O)[C@H](CCCN)NC(=O)[C@H](CC(=O)O)NC(=O)[C@H](CC(C)C)NC(=O)[C@](C)(CC(C)C)NC(=O)[C@@H](NC(=O)[C@H](CO)NC(=O)[C@H](Cc1ccncc1)NC(=O)[C@H](CC(=O)O)NC(=O)[C@H](CO)NC(=O)[C@@H](NC(=O)[C@](C)(Cc1ccccc1F)NC(=O)[C@@H](NC(=O)CNC(=O)[C@H](CCC(N)=O)NC(=O)C(C)(C)NC(=O)[C@@H](N)Cc1ccc(O)cc1)[C@@H](C)O)[C@@H](C)O)[C@@H](C)CC)C(=O)N[C@H](CCC(=O)O)C(=O)N[C@@](C)(Cc1ccc(O)cc1)C(=O)N[C@@H](CC(C)C)C(=O)N[C@@H](CC(C)C)C(=O)N[C@@H](CCC(=O)O)C(=O)NCC(=O)NCC(=O)N1CCC[C@H]1C(=O)N[C@@H](CO)C(=O)N[C@@H](CO)C(=O)NCC(=O)N[C@@H](CCC(=O)O)C(=O)N1CCC[C@H]1C(=O)N1CCC[C@H]1C(=O)N1CCC[C@H]1C(=O)N[C@@H](CCC(=O)O)C(N)=O [Example 370] (H-Y[Aib]QGT[αMePhe(2-F)]TSD[4Pal]SI[αMeL]LD[Orn]K([AEEA-γGlu-C18 diacid])AQ[Aib][Orn]FI[dE][αMeY]LLEGGPSSGEPPPE-NH2) | 7.06 | 0.406 | 0.027 | 37.5 | 4.23 | 803 |
| CC[C@H](C)[C@H](NC(=O)[C@H](Cc1ccccc1)NC(=O)[C@H](CCCN)NC(=O)C(C)(C)NC(=O)[C@H](CCC(N)=O)NC(=O)[C@H](C)NC(=O)[C@H](CCCCNC(=O)CC[C@H](NC(=O)CC[C@H](NC(=O)CCCCCCCCCCCCCCCCC(=O)O)C(=O)O)C(=O)O)NC(=O)[C@H](CCCN)NC(=O)[C@H](CC(=O)O)NC(=O)[C@H](CC(C)C)NC(=O)[C@](C)(CC(C)C)NC(=O)[C@@H](NC(=O)[C@H](CO)NC(=O)[C@H](Cc1ccncc1)NC(=O)[C@H](CC(=O)O)NC(=O)[C@H](CO)NC(=O)[C@@H](NC(=O)[C@](C)(Cc1ccccc1F)NC(=O)[C@@H](NC(=O)CNC(=O)[C@H](CCC(N)=O)NC(=O)C(C)(C)NC(=O)[C@@H](N)Cc1ccc(O)cc1)[C@@H](C)O)[C@@H](C)O)[C@@H](C)CC)C(=O)N[C@H](CCC(=O)O)C(=O)N[C@@](C)(Cc1ccc(O)cc1)C(=O)N[C@@H](CC(C)C)C(=O)N[C@@H](CC(C)C)C(=O)N[C@@H](CCC(=O)O)C(=O)NCC(=O)NCC(=O)N1CCC[C@H]1C(=O)N[C@@H](CO)C(=O)N[C@@H](CO)C(=O)NCC(=O)N[C@@H](CCC(=O)O)C(=O)N1CCC[C@H]1C(=O)N1CCC[C@H]1C(=O)N1CCC[C@H]1C(=O)N[C@@H](CO)C(N)=O [Example 371] | 4.46 | 0.327 | 0.0128 | 47.4 | 1.47 | 463 |

Reference: patent US20240270821A1, “GIP/GLP1/GCG TRI-RECEPTOR AGONISTS AND USES THEREOF” (priority 2023, published 2024)
